The numbers were not newly measured in paper PMC6400584, “Activation mechanism of ATP-sensitive K^+ channels explored with real-time nucleotide binding” (eLife, 2019), which cites them from elsewhere.

The data set deals with T1, SUR1/Kir6.2 (Homo sapiens, UniProt Q09428+Q14654).
T1 construct: expressed in transfected cells; host or cells: HEK-293T
Further details: method as in Proks et al., 2010. The following applies: 100 μM in Mg2+-free solutions; wild-type; ref Proks et al., 2010; cited from earlier work.

Each structure is given as a SMILES string.

T1 sequence (Q14654 whole entry): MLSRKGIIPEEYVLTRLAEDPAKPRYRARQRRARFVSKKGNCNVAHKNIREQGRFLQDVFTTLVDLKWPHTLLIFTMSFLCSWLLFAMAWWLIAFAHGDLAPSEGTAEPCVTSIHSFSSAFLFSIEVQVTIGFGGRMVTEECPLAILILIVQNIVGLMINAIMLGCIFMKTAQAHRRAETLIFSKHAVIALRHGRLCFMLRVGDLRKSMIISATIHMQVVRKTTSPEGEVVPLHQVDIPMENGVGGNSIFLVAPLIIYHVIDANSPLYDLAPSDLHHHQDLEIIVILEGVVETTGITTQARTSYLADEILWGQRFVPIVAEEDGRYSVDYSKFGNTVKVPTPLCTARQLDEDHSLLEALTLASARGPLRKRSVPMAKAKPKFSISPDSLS
T1 sequence (Q09428 whole entry): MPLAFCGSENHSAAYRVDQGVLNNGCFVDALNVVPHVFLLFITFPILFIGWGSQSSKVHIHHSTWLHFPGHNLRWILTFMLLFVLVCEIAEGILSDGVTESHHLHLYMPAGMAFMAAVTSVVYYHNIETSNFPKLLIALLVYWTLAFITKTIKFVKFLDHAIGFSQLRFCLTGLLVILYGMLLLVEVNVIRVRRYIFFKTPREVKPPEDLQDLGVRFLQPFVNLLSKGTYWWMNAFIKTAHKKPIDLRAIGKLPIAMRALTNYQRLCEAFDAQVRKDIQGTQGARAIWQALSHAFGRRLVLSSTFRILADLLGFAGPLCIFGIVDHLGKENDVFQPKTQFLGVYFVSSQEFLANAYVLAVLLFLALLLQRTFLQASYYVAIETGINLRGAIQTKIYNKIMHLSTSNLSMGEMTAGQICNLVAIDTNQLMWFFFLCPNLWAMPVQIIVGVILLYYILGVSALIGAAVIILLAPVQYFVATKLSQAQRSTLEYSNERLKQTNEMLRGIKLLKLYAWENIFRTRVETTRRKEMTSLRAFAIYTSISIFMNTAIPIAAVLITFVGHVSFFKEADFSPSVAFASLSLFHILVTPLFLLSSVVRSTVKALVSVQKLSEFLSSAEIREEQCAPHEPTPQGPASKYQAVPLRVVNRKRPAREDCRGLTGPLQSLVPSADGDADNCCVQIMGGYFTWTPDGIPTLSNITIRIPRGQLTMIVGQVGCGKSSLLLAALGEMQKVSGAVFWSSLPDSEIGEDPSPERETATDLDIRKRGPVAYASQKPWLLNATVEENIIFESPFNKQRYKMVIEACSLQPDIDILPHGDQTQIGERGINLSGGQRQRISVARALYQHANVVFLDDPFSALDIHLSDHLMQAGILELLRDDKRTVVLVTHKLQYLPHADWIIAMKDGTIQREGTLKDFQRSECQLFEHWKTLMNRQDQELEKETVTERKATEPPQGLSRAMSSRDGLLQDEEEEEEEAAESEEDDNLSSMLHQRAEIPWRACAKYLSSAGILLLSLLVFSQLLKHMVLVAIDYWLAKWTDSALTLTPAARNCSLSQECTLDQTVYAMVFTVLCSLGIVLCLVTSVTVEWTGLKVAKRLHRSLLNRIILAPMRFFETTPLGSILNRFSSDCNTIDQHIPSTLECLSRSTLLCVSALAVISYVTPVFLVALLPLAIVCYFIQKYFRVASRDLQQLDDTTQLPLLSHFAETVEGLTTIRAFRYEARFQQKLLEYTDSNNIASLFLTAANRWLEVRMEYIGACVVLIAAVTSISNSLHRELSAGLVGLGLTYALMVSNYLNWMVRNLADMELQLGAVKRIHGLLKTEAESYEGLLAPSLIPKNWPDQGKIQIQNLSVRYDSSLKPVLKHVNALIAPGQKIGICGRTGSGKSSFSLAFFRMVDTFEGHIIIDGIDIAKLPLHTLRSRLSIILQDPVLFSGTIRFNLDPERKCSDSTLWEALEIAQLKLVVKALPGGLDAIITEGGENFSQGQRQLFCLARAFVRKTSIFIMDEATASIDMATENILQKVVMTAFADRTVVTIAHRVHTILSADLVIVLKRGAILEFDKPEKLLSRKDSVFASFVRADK

In the case of `Nc1ncnc2c1ncn2[C@@H]1O[C@H](COP(=O)(O)OP(=O)(O)O)[C@@H](O)[C@H]1O` [ADP], the reduction in current is ~ 60%.
